These results are taken from patent US5892029A, “3-hydroxy-2(1H)-pyridinone chelating agents” (priority 1997, dated 1999).

Series [1] is classed as in vivo, mice. Conditions: for body weight / kidney weight / plasma urea N: mean ± SD. How it is done:
The test of acute toxicity of these novel ligands was carried out as follows. […] The ligand was dissolved in 0.5 to 1.0 ml of saline at pH 7 to 8. After a period of observation, the mice were killed, selected tissues were removed and fixed for histopathological examination,and unusual findings at autopsy were recorded.

Series [2] in a line: Promoting excretion of 238Pu(IV) in mice by injected ligands (Table 3). It is filed as in vivo. To be noted: 30 μmol/kg i.p. An excerpt:
Animal studies were completed using methods detailed in Radiation Protection Dosimetry, 1994, 53, 305: P. W. Durbin et al., "In Vivo Chelation of Am(III), Pu(IV), Np(V) and U(VI) in Mice by TREN-(Me-3,2-HOPO)"; Radiation Protection Dosimetry, 1989, 17, 351: P. W. Durbin et al., "Removal of ^238 Pu(IV) from Mice by Polycatechoylate, -Hydroxamate or -Hydroxypyridinonate Ligands"; Radiation Research, 1984, 99, 85: P. W. Durbin et al., "Specific Sequestering Agents for the Actinides . . . "; Radiation Research, 1984, 99, 106: P. W. Durbin et al., "Removal of Pu and Am from Beagles and Mice . . . "; Radiation Research, 1980, 81, 170: R. D. Lloyd et al., and P. W. Durbin et al., "Specific Sequestering Agents for the Actinides . . . ". The foregoing articles are hereby incorporated by reference.
Radionuclides used in the animal studies came from a variety of sources. The ^238 Pu(IV) citrate and ^241 Am(III) citrate solutions were prepared for animal injection by 8- to 10-fold dilution with 0.14M NaC1 (pH 4) of concentrated stock solutions (0.08M sodium citrate buffer) that had been held in frozen storage at Lawrence Berkeley Laboratory (hereinafter LBL) for several years. [The ^238 Pu(IV) was originally obtained from D. R. Atherton at the University of Utah Radiobiology Laboratory, Salt Lake City. The ^241 Am(III) solution had been obtained many years earlier from the LBL Actinide Chemistry group.]
The novel chelating agents of the present invention were tested for their effectiveness in promoting excretion of ^238 Pu(IV) in mice by injected ligands as follows. Mice, in groups of five, each received an intravenous injection of 1850 Bq^238 Pu(IV) in 0.2 mL of citrate buffer. One hour later, 30 μmol/kg of ligand was injected intraperitoneally in 0.5 mL of saline. The mice were killed 24 hours after the Pu injection, frozen, and dissected after partial thawing. The ^238 Pu in skeleton, soft tissues, and separated excreta was determined by counting the ^234 U L x-rays. […]

The conditions of series [3]: Fe(III); background; cited from earlier work.
Where [4] appears, read: protocol I: 100 μmol/kg × 10 daily i.p., 11 d.
The mark [5] stands for this setting: protocol I: 100 μmol/kg × 10 daily i.p., 21 d.
Where [6] appears, read: protocol II: 500 μmol/kg × 2 in 8 h i.p., 11 d.

The structures appear in SMILES notation. Read-outs that look alike come from different tables or passages of the source.

In the case of `Cn1ccc(C(=O)NCCOCCNC(=O)c2ccn(C)c(=O)c2O)c(O)c1=O` [5-LI-O-Me-3,2-HOPO, 1,5-bis[(3-hydroxy-1-methyl-2-oxo-1,2-dihydro-pyridin-4-yl)carboxamido]-3-oxypentane], the “toxicity / mortality (in words)” value in series [1] (mouse, in vivo) is “low toxicity”. Further, the body weight in series [1] (setting [4]) was 103 ± 5 percent control; in series [1] (setting [5]), 101 ± 5 percent control; in series [1] (setting [6]), 100 ± 2 percent control. Also, the kidney weight turned out to be 100 ± 19 percent control in series [1] (setting [4]), 111 ± 5 percent control in series [1] (setting [5]) and 108 ± 10 percent control in series [1] (setting [6]). In addition, the results for the “plasma urea N” value in series [1] (setting [4]), in series [1] (setting [5]) and in series [1] (setting [6]) were 83 ± 5 percent control, 86 ± 18 percent control and 77 ± 10 percent control, respectively. Further, the no. of survivors in series [1] (protocol I: 100 μmol/kg × 10 daily i.p., 11 d, of 5 mice) is 5; in series [1] (protocol I: 100 μmol/kg × 10 daily i.p., 21 d, of 5 mice) it was 5; in series [1] (protocol II: 500 μmol/kg × 2 in 8 h i.p., 11 d, of 5 (5-LI) or 10 (5-LI-O) mice) it was 110. The “effectiveness of Pu removal, injected (in words)” value in series [2] is “as effective or more effective than the hexadentate and octadentate chelating agents”.
Turning to `O=C(N[C@H]1COC(=O)[C@@H](NC(=O)c2cccc(O)c2O)COC(=O)[C@@H](NC(=O)c2cccc(O)c2O)COC1=O)c1cccc(O)c1O` [enterobactin], in series [3], the “formation constant Kf” value is recorded as “≈ 10^49” and the pM was 35.5.
